Test results: patent US7524868B2, “Substituted pyrazoline compounds, their preparation and use as medicaments” (Laboratorios Del Dr. Esteve, S.A., priority 2004, dated 2009)

Experiment: In-vivo testing for antiobesic activity
Details: rats
[1] = 10 mg/kg body weight daily intraperitoneally over 14 days

In the case of `O=C(NN1CCCCC1)C1=NN(c2ccc(Cl)cc2Cl)C(c2ccc(Cl)cc2)C1` (stereo not drawn) [Example 1, N-piperidinyl-5-(4-chlorophenyl)-1-(2,4-dichlorophenyl)-4,5-dihydro-1H-pyrazole-3-carboxamide], the “body weight (FIG. 1)” value [1] is reported as “body weight is lowered”, the “food intake (FIG. 2)” value [1] is reported as “reduction of food intake” and the “body weight effect after the treatment is ended (FIG. 1)” value (after end of 14 days of 10 mg/kg daily intraperitoneally) is reported as “also observed after the treatment is ended”.
